Source: publication PMC9969401, “Discovery of 2-(3-Benzamidopropanamido)thiazole-5-carboxylate Inhibitors of the Kinesin HSET (KIFC1) and the Development of Cellular Target Engagement Probes” (Journal of Medicinal Chemistry, 2023)
Like-named read-outs stand apart in the source and are kept apart here.

Columns and labels:
[1] = biological target: T1, recombinant full-length HSET (Homo sapiens, UniProt Q9BW19); assay: ADP-Glo HSET assay (3 μM ATP), microtubule-stimulated ATPase; format: biochemical; conditions: for IC50: preformed microtubules, 3 μM ATP, read-out: HSET ADP-Glo IC50
T1 construct: 5 nM full-length human N-terminal His-tag HSET; His-tag (N)
T1 sequence (Q9BW19 1-673): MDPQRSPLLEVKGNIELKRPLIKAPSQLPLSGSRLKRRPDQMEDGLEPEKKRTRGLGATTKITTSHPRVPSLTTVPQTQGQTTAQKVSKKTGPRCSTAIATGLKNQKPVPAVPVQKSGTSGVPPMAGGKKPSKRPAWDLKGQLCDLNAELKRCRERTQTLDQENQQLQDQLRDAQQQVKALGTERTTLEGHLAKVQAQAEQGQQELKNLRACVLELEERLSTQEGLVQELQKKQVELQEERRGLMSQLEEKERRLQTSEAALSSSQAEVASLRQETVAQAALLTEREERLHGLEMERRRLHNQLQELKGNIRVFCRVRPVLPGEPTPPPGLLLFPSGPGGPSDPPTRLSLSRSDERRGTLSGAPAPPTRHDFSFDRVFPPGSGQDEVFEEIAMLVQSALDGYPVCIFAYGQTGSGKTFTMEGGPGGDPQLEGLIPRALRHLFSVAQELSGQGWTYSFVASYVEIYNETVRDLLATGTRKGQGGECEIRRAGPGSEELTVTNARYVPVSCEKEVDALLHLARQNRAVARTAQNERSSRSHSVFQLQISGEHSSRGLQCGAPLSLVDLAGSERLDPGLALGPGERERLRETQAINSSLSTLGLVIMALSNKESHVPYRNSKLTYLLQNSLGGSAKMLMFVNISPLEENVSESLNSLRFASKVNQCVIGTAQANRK
How it was run: (§1)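 His-tagged full-length HSET (5 nM) or GST-Eg5 motor domain (4 nM), with 70 μg/mL paclitaxel-stabilised microtubules in HEPES pH 6.8 buffer, was preincubated with compound for 10 min. ATP was then added (3 or 500 μM for HSET, 4.8 μM for Eg5), followed by 80 min at 25 °C and ADP-Glo luminescence. IC50 was fitted with a four-parameter logistic.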

[2] = biological target: T2, GST-tagged Eg5 motor domain (Homo sapiens, UniProt P52732); assay: ADP-Glo Eg5 assay (4.8 μM ATP); format: biochemical; conditions: preformed microtubules, 4.8 μM ATP (Table 4)
T2 construct: 4 nM GST-tagged Eg5 motor domain protein (Cytoskeleton, EG01); purchased Cytoskeleton EG01
T2 sequence (P52732 18-359 limits assumed): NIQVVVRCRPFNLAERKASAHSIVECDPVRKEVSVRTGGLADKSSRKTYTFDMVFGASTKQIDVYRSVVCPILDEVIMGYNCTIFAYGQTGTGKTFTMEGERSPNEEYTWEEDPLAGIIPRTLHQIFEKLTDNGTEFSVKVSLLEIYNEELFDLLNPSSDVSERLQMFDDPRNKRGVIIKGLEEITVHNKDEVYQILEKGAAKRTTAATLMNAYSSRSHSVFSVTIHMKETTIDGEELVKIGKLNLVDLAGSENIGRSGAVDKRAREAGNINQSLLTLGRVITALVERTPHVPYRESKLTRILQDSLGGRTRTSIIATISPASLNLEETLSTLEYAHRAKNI
How it was run: as §1

[3] = mean (±SD) n ≥ 3 (37 n = 2, 38 single determination) (Table 3)

| Compound | LE ([1]; LE = −1.4Log(IC50 [M])/number of non-hydrogen atoms (Table 2)) | LLE ([1]; LLE = −Log(IC50 [M]) – cLogP (MoKa) (Table 2)) | IC50 ([1]; mean (±SD) n ≥ 3 (Table 4)) | IC50 ([1]; mean (±SD) n ≥ 3, >200 from a single determination (Table 2)) | fold increase in HSET inhibition ([1]; propyl ester versus ethyl ester 13) | IC50 [2] | IC50 [1, 3] | fold decrease in HSET activity ([1]; compared to its parent compound (35)) |
| --- | --- | --- | --- | --- | --- | --- | --- | --- |
| CCCOC(=O)c1sc(NC(=O)CCNC(=O)c2cccc(-c3noc(C)n3)c2)nc1C [Compound 32, Propyl 4-Methyl-2-(3-(3-(5-methyl-1,2,4-oxadiazol-3-yl)benzamido)propanamido)thiazole-5-carboxylate] | 0.35 | 4.8 | 12 nM | 12 nM | fivefold | > 200000 nM | – | – |
| CCCOC(=O)c1sc(NC(=O)C[C@H](CCCNC)NC(=O)c2cccc(-c3noc(C)n3)c2)nc1C [Compound 35, Propyl (S)-4-Methyl-2-(3-(3-(5-methyl-1,2,4-oxadiazol-3-yl)benzamido)-6-(methylamino)hexanamido)thiazole-5-carboxylate] | – | – | 19 nM | – | – | > 200000 nM | 19 nM | – |
| CCCOC(=O)c1sc(NC(=O)C[C@H](CCCN(C)C)NC(=O)c2cccc(-c3noc(C)n3)c2)nc1C [Compound 36, Propyl (S)-2-(6-(Dimethylamino)-3-(3-(5-methyl-1,2,4-oxadiazol-3-yl)benzamido)hexanamido)-4-methylthiazole-5-carboxylate] | – | – | 11 nM | – | – | > 200000 nM | 11 nM | – |
| CCCOC(=O)c1sc(NC(=O)C[C@H](CCCN(C)C(=O)O[C@@H]2CC/C=C/CCC2)NC(=O)c2cccc(-c3noc(C)n3)c2)nc1C [Compound 38, Propyl 2-((S)-6-(((((S,E)-Cyclooct-4-en-1-yl)oxy)carbonyl)(methyl)amino)-3-(3-(5-methyl-1,2,4-oxadiazol-3-yl)benzamido)hexanamido)-4-methylthiazole-5-carboxylate] | – | – | – | – | – | – | 217 nM | 11 fold |
